Laboratory results as given in ChEMBL document CHEMBL1201862, “PubChem BioAssay data set” (2004).
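Each compound was tested at five concentrations against cells in 96-well plates for 48 hours. GI50 is the concentration that inhibits growth by half.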 The source made the active and inactive calls. No stated cut-off is given here; in the data, active = GI50 up to about 1.1 µM and inactive = higher.

How the values were obtained:
Test in all cases: NCI tumour cell line growth inhibition, 48 h
786-0 = tested on: 786-0
A498 = tested on: A498
A549 = tested on: A549
ACHN = tested on: ACHN
COLO 205 = tested on: COLO 205
DU-145 = tested on: DU-145
EKVX = tested on: EKVX
HCC 2998 = tested on: HCC 2998
HCT-116 = tested on: HCT-116
HCT-15 = tested on: HCT-15
HOP-62 = tested on: HOP-62
HOP-92 = tested on: HOP-92
HT-29 = tested on: HT-29
Hs-578T = tested on: Hs-578T
IGROV-1 = tested on: IGROV-1
KM12 = tested on: KM12
M14 = tested on: M14
MCF7 = tested on: MCF7
MDA-MB-231 = tested on: MDA-MB-231
MDA-MB-435 = tested on: MDA-MB-435
MDA-N = tested on: MDA-N
MOLT-4 = tested on: MOLT-4
NCI-H226 = tested on: NCI-H226
NCI-H23 = tested on: NCI-H23
NCI-H460 = tested on: NCI-H460
NCI/ADR-RES = tested on: NCI/ADR-RES
OVCAR-3 = tested on: OVCAR-3
OVCAR-4 = tested on: OVCAR-4
OVCAR-5 = tested on: OVCAR-5
OVCAR-8 = tested on: OVCAR-8
RPMI-8226 = tested on: RPMI-8226
RXF 393 = tested on: RXF 393
SF-268 = tested on: SF-268
SF-295 = tested on: SF-295
SF-539 = tested on: SF-539
SK-MEL-28 = tested on: SK-MEL-28
SK-MEL-2 = tested on: SK-MEL-2
SK-MEL-5 = tested on: SK-MEL-5
SK-OV-3 = tested on: SK-OV-3
SN12C = tested on: SN12C
SNB-19 = tested on: SNB-19
SNB-75 = tested on: SNB-75
SW-620 = tested on: SW-620
T47D = tested on: T47D
TK-10 = tested on: TK-10
U-251 = tested on: U-251
UACC-257 = tested on: UACC-257
UACC-62 = tested on: UACC-62
UO-31 = tested on: UO-31
BT-549 = tested on: BT-549
CAKI-1 = tested on: CAKI-1
CCRF-CEM = tested on: CCRF-CEM
HL-60 = tested on: HL-60
K562 = tested on: K562
LOX IMVI = tested on: LOX IMVI
PC-3 = tested on: PC-3
SR = tested on: SR

O=c1cc(-c2ccncc2)[nH]c2cc3c(cc12)OCO3
GI50 (786-0): 64.6 µM (inactive) | GI50 (A498): > 100 µM (inactive) | GI50 (A549): > 100 µM (inactive) | GI50 (ACHN): > 100 µM (inactive) | GI50 (COLO 205): > 100 µM (inactive) | GI50 (DU-145): > 100 µM (inactive) | GI50 (EKVX): > 100 µM (inactive) | GI50 (HCC 2998): > 100 µM (inactive) | GI50 (HCT-116): 97.3 µM (inactive) | GI50 (HCT-15): > 100 µM | GI50 (HOP-62): > 100 µM (inactive) | GI50 (HOP-92): > 100 µM (inactive) | GI50 (HT-29): > 100 µM (inactive) | GI50 (Hs-578T): > 100 µM (inactive) | GI50 (IGROV-1): > 100 µM (inactive) | GI50 (KM12): > 100 µM (inactive) | GI50 (M14): > 100 µM (inactive) | GI50 (MCF7): > 100 µM (inactive) | GI50 (MDA-MB-231): > 100 µM (inactive) | GI50 (MDA-MB-435): > 100 µM (inactive) | GI50 (MDA-N): > 100 µM (inactive) | GI50 (MOLT-4): > 100 µM (inactive) | GI50 (NCI-H226): > 100 µM (inactive) | GI50 (NCI-H23): > 100 µM (inactive) | GI50 (NCI-H460): > 100 µM (inactive) | GI50 (NCI/ADR-RES): > 100 µM (inactive) | GI50 (OVCAR-3): > 100 µM (inactive) | GI50 (OVCAR-4): > 100 µM (inactive) | GI50 (OVCAR-5): > 100 µM (inactive) | GI50 (OVCAR-8): > 100 µM (inactive) | GI50 (RPMI-8226): > 100 µM (inactive) | GI50 (RXF 393): > 100 µM (inactive) | GI50 (SF-268): > 100 µM (inactive) | GI50 (SF-295): > 100 µM (inactive) | GI50 (SF-539): > 100 µM (inactive) | GI50 (SK-MEL-28): > 100 µM (inactive) | GI50 (SK-MEL-2): > 100 µM (inactive) | GI50 (SK-MEL-5): > 100 µM (inactive) | GI50 (SK-OV-3): > 100 µM (inactive) | GI50 (SN12C): > 100 µM (inactive) | GI50 (SNB-19): > 100 µM (inactive) | GI50 (SNB-75): 49.7 µM (inactive) | GI50 (SW-620): > 100 µM (inactive) | GI50 (T47D): > 100 µM (inactive) | GI50 (TK-10): > 100 µM (inactive) | GI50 (U-251): > 100 µM (inactive) | GI50 (UACC-257): > 100 µM (inactive) | GI50 (UACC-62): > 100 µM (inactive) | GI50 (UO-31): > 100 µM (inactive)

NC1(c2cc3ccccc3s2)CCCCCC1
GI50 (786-0): 15.5 µM (inactive) | GI50 (A498): 20.7 µM (inactive) | GI50 (A549): 18.1 µM (inactive) | GI50 (ACHN): 19.3 µM (inactive) | GI50 (BT-549): 17.7 µM (inactive) | GI50 (CAKI-1): 13.8 µM (inactive) | GI50 (CCRF-CEM): 16 µM (inactive) | GI50 (COLO 205): 12.6 µM (inactive) | GI50 (DU-145): 17.2 µM (inactive) | GI50 (EKVX): 18.7 µM (inactive) | GI50 (HCC 2998): 1.98 µM (inactive) | GI50 (HCT-116): 16.1 µM (inactive) | GI50 (HCT-15): 17.1 µM | GI50 (HL-60): 14.8 µM (inactive) | GI50 (HOP-62): 14.6 µM (inactive) | GI50 (HOP-92): 14 µM (inactive) | GI50 (HT-29): 14.2 µM (inactive) | GI50 (IGROV-1): 14.7 µM (inactive) | GI50 (K562): 10.1 µM (inactive) | GI50 (KM12): 16 µM (inactive) | GI50 (LOX IMVI): 17.9 µM (inactive) | GI50 (M14): 18.8 µM (inactive) | GI50 (MCF7): 16.1 µM (inactive) | GI50 (MDA-MB-231): 15.7 µM (inactive) | GI50 (MDA-MB-435): 16.1 µM (inactive) | GI50 (MDA-N): 16.6 µM (inactive) | GI50 (MOLT-4): 14.1 µM (inactive) | GI50 (NCI-H226): 19.8 µM (inactive) | GI50 (NCI-H23): 17.3 µM (inactive) | GI50 (NCI-H460): 15 µM (inactive) | GI50 (NCI/ADR-RES): 15 µM (inactive) | GI50 (OVCAR-3): 15.7 µM (inactive) | GI50 (OVCAR-4): 14.4 µM (inactive) | GI50 (OVCAR-5): 15 µM (inactive) | GI50 (OVCAR-8): 17.3 µM (inactive) | GI50 (PC-3): 11.7 µM (inactive) | GI50 (RXF 393): 12.7 µM (inactive) | GI50 (SF-295): 18.3 µM (inactive) | GI50 (SF-539): 18 µM (inactive) | GI50 (SK-MEL-28): 16.7 µM (inactive) | GI50 (SK-MEL-2): 10.4 µM (inactive) | GI50 (SK-MEL-5): 15.1 µM (inactive) | GI50 (SK-OV-3): 17.1 µM (inactive) | GI50 (SN12C): 16.8 µM (inactive) | GI50 (SNB-19): 18.2 µM (inactive) | GI50 (SNB-75): 11.1 µM (inactive) | GI50 (SR): 16.2 µM (inactive) | GI50 (SW-620): 16.3 µM (inactive) | GI50 (TK-10): 15.4 µM (inactive) | GI50 (U-251): 15.7 µM (inactive) | GI50 (UACC-257): 16.3 µM (inactive) | GI50 (UACC-62): 18 µM (inactive) | GI50 (UO-31): 14.4 µM (inactive)

O=S(=O)(O)c1ccc2c(/N=N/c3ccccc3)c(O)ccc2c1
GI50 (786-0): > 100 µM (inactive) | GI50 (A498): > 100 µM (inactive) | GI50 (BT-549): > 100 µM (inactive) | GI50 (CAKI-1): > 100 µM (inactive) | GI50 (CCRF-CEM): > 100 µM (inactive) | GI50 (COLO 205): > 100 µM (inactive) | GI50 (DU-145): > 100 µM (inactive) | GI50 (EKVX): > 100 µM (inactive) | GI50 (HCC 2998): > 100 µM (inactive) | GI50 (HCT-116): > 100 µM (inactive) | GI50 (HCT-15): > 100 µM | GI50 (HL-60): > 100 µM (inactive) | GI50 (HOP-92): > 100 µM (inactive) | GI50 (IGROV-1): > 100 µM (inactive) | GI50 (KM12): > 100 µM (inactive) | GI50 (M14): > 100 µM (inactive) | GI50 (MCF7): > 100 µM (inactive) | GI50 (MDA-MB-435): > 100 µM (inactive) | GI50 (MOLT-4): > 100 µM (inactive) | GI50 (NCI-H460): > 100 µM (inactive) | GI50 (OVCAR-3): > 100 µM (inactive) | GI50 (OVCAR-5): > 100 µM (inactive) | GI50 (OVCAR-8): > 100 µM (inactive) | GI50 (RXF 393): > 100 µM (inactive) | GI50 (SF-539): > 100 µM (inactive) | GI50 (SK-MEL-28): > 100 µM (inactive) | GI50 (SK-MEL-2): > 100 µM (inactive) | GI50 (SK-MEL-5): > 100 µM (inactive) | GI50 (SK-OV-3): > 100 µM (inactive) | GI50 (SN12C): > 100 µM (inactive) | GI50 (SNB-19): > 100 µM (inactive) | GI50 (SNB-75): > 100 µM (inactive) | GI50 (SR): > 100 µM (inactive) | GI50 (SW-620): > 100 µM (inactive) | GI50 (T47D): > 100 µM (inactive) | GI50 (U-251): > 100 µM (inactive) | GI50 (UACC-257): > 100 µM (inactive) | GI50 (UO-31): > 100 µM (inactive)
